Measurements taken from ChEMBL document CHEMBL1150192, “Tetracyclic Triterpenoids of the Fruit Coats of Azadirachta indica” (J Nat Prod, 1991).
Calls of active or inactive are those of the source.

Assays:
Type in all cases: functional, organism-based
Bacillus subtilis = assay: Antimicrobial activity against Bacillus subtilis
Bacillus pumilus = assay: Antimicrobial activity against Bacillus pumilus
Staphylococcus aureus = assay: Antimicrobial activity against Staphylococcus aureus
[1] = test system: Staphylococcus epidermidis; assay: Antimicrobial activity against Staphylococcus epidermidis
Serratia marcescens = assay: Antimicrobial activity against Serratia marcescens
Staphylococcus = assay: Antimicrobial activity against Staphylococcus citreus
Streptococcus pyogenes = assay: Antimicrobial activity against Streptococcus pyogenes
Escherichia coli = assay: Antimicrobial activity against Escherichia coli
Shigella dysenteriae = assay: Antimicrobial activity against Shigella dysenteriae
Shigella sonnei = assay: Antimicrobial activity against Shigella sonnei
[2] = test system: Salmonella enterica subsp. enterica serovar Typhi str. CT18; assay: Antimicrobial activity against Salmonella typhi
Salmonella paratyphi = assay: Antimicrobial activity against Salmonella paratyphi A; conditions: Salmonella enterica subsp. enterica serovar Paratyphi A
Klebsiella pneumoniae = assay: Antimicrobial activity against Klebsiella pneumoniae
Proteus vulgaris = assay: Antimicrobial activity against Proteus vulgaris
Salmonella = assay: Antimicrobial activity against Salmonella schottmuelleri

Measured: Activity

CC(=O)O[C@@H]1C[C@H]2C(C)(C)C(=O)C=C[C@]2(C)[C@H]2CC[C@]3(C)C(=CC[C@H]3[C@@H](CO)C[C@H](O)C(=O)C(C)(C)O)[C@@]21C
inactive: all assays above
